Assay [1] deals with T1, Mitochondrial peptide methionine sulfoxide reductase (Bos taurus, UniProt P54149).
T1 sequence (P54149 whole entry): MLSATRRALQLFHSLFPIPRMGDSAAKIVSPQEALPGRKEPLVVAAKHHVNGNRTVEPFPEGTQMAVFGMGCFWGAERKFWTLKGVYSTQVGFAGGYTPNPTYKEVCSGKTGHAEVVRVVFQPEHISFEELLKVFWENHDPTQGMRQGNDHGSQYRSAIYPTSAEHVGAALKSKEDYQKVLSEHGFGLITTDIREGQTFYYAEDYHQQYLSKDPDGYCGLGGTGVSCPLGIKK
The assay can be described thus: Absorbance-based biochemical high throughput dose response assay for activators of Methionine sulfoxide reductase A (MsrA). Format: functional.

In a further assay the target is T2, Caspase-6 (Homo sapiens, UniProt P55212).
T2 sequence (P55212 whole entry): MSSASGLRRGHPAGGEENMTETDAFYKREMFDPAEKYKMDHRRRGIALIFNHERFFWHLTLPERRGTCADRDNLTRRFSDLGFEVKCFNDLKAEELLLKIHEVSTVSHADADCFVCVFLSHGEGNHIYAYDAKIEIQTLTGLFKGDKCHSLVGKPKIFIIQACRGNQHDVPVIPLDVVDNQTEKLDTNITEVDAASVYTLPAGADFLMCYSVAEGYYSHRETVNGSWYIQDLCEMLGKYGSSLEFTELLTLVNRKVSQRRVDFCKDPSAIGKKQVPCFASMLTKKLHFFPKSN
The assay can be described thus: inhibition of CASP6 peptide cleavage – biochemical, VEID-R110 fluorescence, cherry-pick, dose response (AID 720632).

Assay [2] concerns the target 5'-AMP-activated protein kinase catalytic subunit alpha-1 (Homo sapiens, UniProt Q13131). Format: functional.
Assay [3] has as its target Death-associated protein kinase 3 (Homo sapiens, UniProt O43293). Format: functional.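 Further: measured as one member of a kinome-wide profiling panel.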
In assay [4] the target is Mitogen-activated protein kinase 8 (Homo sapiens, UniProt P45983). The format is functional.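 Further: value comes from one member of a kinome-wide kinase profiling panel.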
Sequence of Mitogen-activated protein kinase 8 (P45983 whole entry): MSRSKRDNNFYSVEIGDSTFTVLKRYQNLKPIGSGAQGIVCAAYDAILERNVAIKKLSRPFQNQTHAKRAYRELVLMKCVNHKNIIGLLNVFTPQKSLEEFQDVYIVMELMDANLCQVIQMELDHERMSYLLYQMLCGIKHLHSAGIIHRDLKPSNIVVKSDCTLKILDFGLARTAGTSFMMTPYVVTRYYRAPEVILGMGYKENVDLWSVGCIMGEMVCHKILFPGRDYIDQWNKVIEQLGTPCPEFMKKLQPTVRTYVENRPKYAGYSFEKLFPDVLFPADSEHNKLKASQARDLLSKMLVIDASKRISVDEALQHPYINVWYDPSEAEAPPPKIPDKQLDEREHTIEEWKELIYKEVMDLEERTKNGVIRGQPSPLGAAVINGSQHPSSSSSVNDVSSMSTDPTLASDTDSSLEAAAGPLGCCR
In assay [5] the target is Serine/threonine-protein kinase pim-1 (Homo sapiens, UniProt P11309). The format is functional.
Sequence of Serine/threonine-protein kinase pim-1 (P11309 whole entry): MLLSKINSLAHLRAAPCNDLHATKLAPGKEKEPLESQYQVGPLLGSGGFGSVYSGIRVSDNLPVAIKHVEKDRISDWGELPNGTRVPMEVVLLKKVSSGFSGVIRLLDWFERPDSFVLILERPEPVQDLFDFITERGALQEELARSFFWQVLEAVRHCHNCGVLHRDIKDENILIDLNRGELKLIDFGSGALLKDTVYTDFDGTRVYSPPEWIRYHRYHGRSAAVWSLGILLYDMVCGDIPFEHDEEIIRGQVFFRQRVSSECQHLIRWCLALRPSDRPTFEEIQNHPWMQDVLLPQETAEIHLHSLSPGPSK
Assay [6] has as its target Tyrosine-protein kinase BTK (Homo sapiens, UniProt Q06187). The format is functional.
Assay [7] addresses Mitogen-activated protein kinase 9 (Homo sapiens, UniProt P45984). Format: functional.
Assay [8] concerns the target T3, Serine/threonine-protein kinase TAO1 (Homo sapiens, UniProt Q7L7X3).
T3 sequence (Q7L7X3 whole entry): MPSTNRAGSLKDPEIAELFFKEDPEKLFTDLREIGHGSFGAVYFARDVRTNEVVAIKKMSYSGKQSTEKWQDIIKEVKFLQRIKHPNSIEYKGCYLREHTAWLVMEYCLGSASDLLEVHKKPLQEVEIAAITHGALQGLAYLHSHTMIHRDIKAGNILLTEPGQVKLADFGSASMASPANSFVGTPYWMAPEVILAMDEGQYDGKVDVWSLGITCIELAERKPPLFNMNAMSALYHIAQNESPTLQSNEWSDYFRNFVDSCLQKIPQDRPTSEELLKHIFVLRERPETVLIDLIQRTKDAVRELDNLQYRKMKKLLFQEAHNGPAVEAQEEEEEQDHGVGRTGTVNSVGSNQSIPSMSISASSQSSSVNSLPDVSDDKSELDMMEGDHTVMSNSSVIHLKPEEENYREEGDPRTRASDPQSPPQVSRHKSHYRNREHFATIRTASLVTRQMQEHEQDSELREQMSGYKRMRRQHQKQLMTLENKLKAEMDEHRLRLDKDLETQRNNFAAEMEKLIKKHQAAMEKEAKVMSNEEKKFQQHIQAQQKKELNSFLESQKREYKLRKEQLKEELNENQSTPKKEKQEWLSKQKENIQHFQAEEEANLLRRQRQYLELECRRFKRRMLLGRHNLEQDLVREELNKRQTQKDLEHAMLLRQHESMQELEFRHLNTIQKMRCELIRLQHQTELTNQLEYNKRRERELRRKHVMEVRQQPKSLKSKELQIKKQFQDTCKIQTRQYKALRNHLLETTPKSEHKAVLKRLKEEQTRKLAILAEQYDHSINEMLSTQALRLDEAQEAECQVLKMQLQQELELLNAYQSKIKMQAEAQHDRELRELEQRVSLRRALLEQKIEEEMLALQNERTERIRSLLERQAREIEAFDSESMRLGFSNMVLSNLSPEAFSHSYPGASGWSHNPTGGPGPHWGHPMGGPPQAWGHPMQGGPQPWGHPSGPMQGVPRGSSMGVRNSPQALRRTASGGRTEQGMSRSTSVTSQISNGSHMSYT
Format: functional.

Assay [9] concerns the target High affinity nerve growth factor receptor (Homo sapiens, UniProt P04629). Format: functional.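 Further: NTRK1 tested as one member of a kinome-wide profiling panel.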
Assay [10] addresses Hepatocyte growth factor receptor (Homo sapiens, UniProt P08581). Format: functional.
Assay [11] concerns the target Tyrosine-protein kinase ABL1 (Homo sapiens, UniProt P00519). Format: functional.
Assay [12] deals with Vascular endothelial growth factor receptor 2 (Homo sapiens, UniProt P35968). Format: functional.
Sequence of Vascular endothelial growth factor receptor 2 (P35968 whole entry): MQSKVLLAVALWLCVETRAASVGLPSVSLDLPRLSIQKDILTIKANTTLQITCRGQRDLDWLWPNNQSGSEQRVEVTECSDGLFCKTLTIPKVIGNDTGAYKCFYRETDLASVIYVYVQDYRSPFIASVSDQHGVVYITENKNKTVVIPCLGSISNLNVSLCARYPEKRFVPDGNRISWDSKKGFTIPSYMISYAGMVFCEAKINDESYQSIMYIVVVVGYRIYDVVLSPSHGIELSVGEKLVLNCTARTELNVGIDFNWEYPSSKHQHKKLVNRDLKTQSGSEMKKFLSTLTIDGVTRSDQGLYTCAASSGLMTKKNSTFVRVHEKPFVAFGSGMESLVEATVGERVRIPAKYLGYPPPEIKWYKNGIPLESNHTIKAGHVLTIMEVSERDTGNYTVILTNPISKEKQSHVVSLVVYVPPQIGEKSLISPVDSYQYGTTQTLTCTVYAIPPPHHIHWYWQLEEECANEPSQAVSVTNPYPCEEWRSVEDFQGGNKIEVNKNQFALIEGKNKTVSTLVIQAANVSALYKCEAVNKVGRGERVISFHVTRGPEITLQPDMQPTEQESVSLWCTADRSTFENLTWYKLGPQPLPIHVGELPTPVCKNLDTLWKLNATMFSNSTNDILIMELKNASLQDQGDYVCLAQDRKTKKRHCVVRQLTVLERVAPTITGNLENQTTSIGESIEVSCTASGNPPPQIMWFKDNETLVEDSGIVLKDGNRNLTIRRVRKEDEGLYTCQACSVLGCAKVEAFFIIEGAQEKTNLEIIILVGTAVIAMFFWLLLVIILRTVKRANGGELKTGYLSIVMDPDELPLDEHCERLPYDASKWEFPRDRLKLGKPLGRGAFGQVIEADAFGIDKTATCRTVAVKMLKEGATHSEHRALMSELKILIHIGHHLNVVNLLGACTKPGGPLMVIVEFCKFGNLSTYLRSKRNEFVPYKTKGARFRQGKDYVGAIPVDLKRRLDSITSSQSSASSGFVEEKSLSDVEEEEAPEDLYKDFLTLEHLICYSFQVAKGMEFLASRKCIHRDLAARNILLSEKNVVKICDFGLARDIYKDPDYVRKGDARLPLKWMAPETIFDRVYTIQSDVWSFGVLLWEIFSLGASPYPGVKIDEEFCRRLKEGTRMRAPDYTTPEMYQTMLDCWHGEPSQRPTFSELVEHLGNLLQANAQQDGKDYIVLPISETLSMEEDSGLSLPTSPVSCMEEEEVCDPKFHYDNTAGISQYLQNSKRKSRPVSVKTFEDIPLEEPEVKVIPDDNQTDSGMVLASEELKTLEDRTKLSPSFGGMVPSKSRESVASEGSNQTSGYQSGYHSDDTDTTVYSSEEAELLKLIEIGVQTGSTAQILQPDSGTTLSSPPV
Another assay addresses Aurora kinase B (Homo sapiens, UniProt Q96GD4). The format is functional.
For assay [13], the target named is Cyclin-dependent kinase 9 (Homo sapiens, UniProt P50750). Format: functional.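 Further: value from the CDK9 entry of a kinome-spanning kinase panel.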
Sequence of Cyclin-dependent kinase 9 (P50750 whole entry): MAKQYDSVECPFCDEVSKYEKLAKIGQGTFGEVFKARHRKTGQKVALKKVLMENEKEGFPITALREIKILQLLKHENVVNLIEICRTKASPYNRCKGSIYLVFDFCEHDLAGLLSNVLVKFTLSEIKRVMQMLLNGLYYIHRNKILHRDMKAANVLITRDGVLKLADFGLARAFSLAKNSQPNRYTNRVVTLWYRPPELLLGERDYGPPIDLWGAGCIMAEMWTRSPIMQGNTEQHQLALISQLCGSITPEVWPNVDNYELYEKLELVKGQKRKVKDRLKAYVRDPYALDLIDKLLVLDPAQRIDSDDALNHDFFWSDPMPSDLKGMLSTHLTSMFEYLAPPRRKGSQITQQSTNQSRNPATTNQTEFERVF
Assay [14] addresses Macrophage colony-stimulating factor 1 receptor (Homo sapiens, UniProt P07333). The format is functional.
The target of assay [15] is Calcium/calmodulin-dependent protein kinase type II subunit alpha (Homo sapiens, UniProt Q9UQM7). The assay can be described thus: Navigating the Kinome. Panel member name: CAMK2A. The format is functional.
Assay [16] addresses Leukocyte tyrosine kinase receptor (Homo sapiens, UniProt P29376). The assay can be described thus: Navigating the Kinome. Panel member name: LTK. Format: functional.

Structures are written as SMILES. Activity calls are given as the source filed them.

Sequence of Aurora kinase B (Q96GD4 whole entry): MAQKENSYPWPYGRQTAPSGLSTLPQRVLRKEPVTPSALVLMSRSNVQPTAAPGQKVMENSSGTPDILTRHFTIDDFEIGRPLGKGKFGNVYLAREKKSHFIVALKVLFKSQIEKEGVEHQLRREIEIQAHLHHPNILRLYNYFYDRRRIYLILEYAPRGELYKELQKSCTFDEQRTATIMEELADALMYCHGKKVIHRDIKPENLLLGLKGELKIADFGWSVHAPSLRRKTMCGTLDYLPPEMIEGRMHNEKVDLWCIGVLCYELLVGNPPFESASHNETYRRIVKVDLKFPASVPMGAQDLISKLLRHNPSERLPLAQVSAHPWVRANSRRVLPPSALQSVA
Sequence of High affinity nerve growth factor receptor (P04629 whole entry): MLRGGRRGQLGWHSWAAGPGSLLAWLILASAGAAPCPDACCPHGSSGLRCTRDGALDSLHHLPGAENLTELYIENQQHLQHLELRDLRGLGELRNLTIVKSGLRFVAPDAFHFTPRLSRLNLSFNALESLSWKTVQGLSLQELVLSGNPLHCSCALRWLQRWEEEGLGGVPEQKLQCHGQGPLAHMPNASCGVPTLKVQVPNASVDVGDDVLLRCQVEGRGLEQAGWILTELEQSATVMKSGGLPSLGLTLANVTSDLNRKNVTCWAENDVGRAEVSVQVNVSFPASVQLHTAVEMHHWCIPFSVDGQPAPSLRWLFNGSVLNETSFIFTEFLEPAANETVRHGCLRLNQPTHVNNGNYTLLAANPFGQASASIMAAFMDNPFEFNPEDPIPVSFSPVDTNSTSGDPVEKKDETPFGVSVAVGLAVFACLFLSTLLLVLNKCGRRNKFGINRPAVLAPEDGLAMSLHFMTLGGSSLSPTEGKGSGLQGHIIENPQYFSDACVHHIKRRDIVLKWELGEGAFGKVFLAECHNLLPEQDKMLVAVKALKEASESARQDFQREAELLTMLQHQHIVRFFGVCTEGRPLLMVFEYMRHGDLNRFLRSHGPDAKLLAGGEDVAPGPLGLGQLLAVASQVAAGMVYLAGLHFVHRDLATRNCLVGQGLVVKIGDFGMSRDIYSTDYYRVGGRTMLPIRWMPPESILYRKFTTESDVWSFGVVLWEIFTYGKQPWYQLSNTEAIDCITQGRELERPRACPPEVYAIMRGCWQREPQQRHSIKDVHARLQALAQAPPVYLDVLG
Sequence of Tyrosine-protein kinase ABL1 (P00519 whole entry): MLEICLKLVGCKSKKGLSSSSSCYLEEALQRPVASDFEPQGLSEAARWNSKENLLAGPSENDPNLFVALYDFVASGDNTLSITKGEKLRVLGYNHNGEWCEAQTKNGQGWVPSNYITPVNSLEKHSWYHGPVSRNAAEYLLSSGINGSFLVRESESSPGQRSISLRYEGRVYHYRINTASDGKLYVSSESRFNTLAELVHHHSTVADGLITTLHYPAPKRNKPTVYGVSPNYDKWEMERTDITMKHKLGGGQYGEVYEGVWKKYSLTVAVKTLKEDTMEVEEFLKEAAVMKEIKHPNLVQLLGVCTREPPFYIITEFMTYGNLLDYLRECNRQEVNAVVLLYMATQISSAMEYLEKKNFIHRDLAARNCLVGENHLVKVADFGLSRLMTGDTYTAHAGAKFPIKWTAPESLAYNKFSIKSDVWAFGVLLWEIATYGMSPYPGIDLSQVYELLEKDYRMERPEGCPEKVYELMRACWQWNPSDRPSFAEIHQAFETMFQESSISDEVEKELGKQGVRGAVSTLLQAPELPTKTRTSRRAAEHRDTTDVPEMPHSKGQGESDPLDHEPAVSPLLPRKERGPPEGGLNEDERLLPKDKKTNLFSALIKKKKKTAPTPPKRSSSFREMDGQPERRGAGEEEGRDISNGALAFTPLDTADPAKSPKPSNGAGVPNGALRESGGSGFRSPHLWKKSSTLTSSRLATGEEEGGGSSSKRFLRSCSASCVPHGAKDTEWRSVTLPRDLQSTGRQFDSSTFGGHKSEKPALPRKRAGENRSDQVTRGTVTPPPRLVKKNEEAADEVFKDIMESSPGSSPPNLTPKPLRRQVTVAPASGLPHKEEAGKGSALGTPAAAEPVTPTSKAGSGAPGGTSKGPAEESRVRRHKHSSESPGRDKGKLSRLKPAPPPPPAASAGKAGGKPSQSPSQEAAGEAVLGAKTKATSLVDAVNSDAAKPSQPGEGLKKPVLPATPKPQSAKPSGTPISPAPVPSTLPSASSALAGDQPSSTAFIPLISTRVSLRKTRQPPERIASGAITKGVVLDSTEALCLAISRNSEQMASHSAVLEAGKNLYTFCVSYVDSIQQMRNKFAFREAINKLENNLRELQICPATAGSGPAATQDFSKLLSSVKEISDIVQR

In general, EC50 refers to the midpoint of the concentration-response curve. For orientation: AC50 means the concentration at which the activity in the assay is half-maximal. Regarding `O=C(COC(=O)c1ccc([N+](=O)[O-])s1)Nc1ccc(F)cc1`, the EC50 in [1] was > 104000 nM (inactive). The half-maximal activity concentration (AC50) at Caspase-6 is 1960 nM (active).

With `CCN(CC)CCCC(C)n1c2nc(=O)[nH]c(=O)c-2nc2cc(Cl)ccc21` (stereo not given), in [1], the EC50 was 32900 nM (inactive). For the same compound, the AC50 at Caspase-6 is 305 nM (active).

Broadly, the Ki is a dissociation constant, usually derived from enzyme kinetics or from competition with a known ligand. What is called pKi is the negative decadic logarithm of the Ki, by convention in mol/L. On to `OC1CCC(Nc2nc(Cl)cc(-c3c[nH]c4ncccc34)n2)CC1` (stereo not given), for which the Ki was 126 nM (active) in assay [2]; 79.4 nM (active) in assay [3]; 251 nM (active) in [4]; 1000 nM (active) in assay [5]; > 1260 nM (inactive) in assay [6]; 251 nM (active) in [7]. Further, the Ki in [8] was 501 nM (active); in assay [9] it was 398 nM (active); in assay [10], > 3160 nM (inactive); in [11], 631 nM (active); in assay [12] it was 251 nM (active); on Aurora kinase B, 501 nM (active). The Ki was 1.26 nM (active) in assay [13], 200 nM (active) in [14], 158 nM (active) in assay [15] and 251 nM (active) in [16]. Also, the pKi was determined as 6.9 in assay [2]; 7.1 in assay [3]; 6.6 in assay [4]; 6 in assay [5]; 6.6 in [7]; 6.3 in [8]. Moreover, the pKi in [9] worked out at 6.4; in assay [11], 6.2; in assay [12] it was 6.6; at Aurora kinase B it was 6.3; in assay [13], 8.9; in assay [14] it was 6.7. Moreover, the results for the pKi in [15] and in [16] were 6.8 and 6.6, respectively.

For `COc1cccc(CNC(=O)c2cnc(-c3ccncc3)nc2)c1`, the Ki was > 3160 nM (inactive) in assay [2]; > 5010 nM (inactive) in assay [3]; > 5010 nM (inactive) in assay [4]; > 6310 nM (inactive) in assay [5]; > 6310 nM (inactive) in assay [6]; > 3980 nM (inactive) in assay [7]. Also, the Ki in [8] is > 6310 nM (inactive); in assay [9] it was > 3160 nM (inactive); in assay [10], > 2510 nM (inactive); in [11] it was > 3980 nM (inactive); in [12] it was > 2510 nM (inactive); at Aurora kinase B, > 3980 nM (inactive). Further, the Ki was > 1580 nM (inactive) in assay [13], > 2510 nM (inactive) in assay [14], > 7940 nM (inactive) in assay [15] and > 2510 nM (inactive) in assay [16].
